# Test results reported in PubChem BioAssay (NCI).
#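 Assay format: 96-well plates, 48-hour exposure. The concentration for 50% growth inhibition is given as GI50. TGI marks complete inhibition of growth.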
# Key:
# Assay in all cases: NCI tumour cell line growth inhibition, 48 h
# [1] = tested on: 786-0 renal
# [2] = tested on: A498 renal
# [3] = tested on: A549 NSCLC
# [4] = tested on: ACHN renal
# [5] = tested on: BT-549 breast
# [6] = tested on: CCRF-CEM leukemia
# [7] = tested on: COLO 205 colon
# [8] = tested on: DU-145 prostate
# [9] = tested on: EKVX NSCLC
# [10] = tested on: HCC-2998 colon
# [11] = tested on: HCT-116 colon
# [12] = tested on: HCT-15 colon
# [13] = tested on: HL-60(TB) leukemia
# [14] = tested on: HOP-62 NSCLC
# [15] = tested on: HOP-92 NSCLC
# [16] = tested on: HS 578T breast
# [17] = tested on: HT29 colon
# [18] = tested on: IGROV1 ovarian
# [19] = tested on: K-562 leukemia
# [20] = tested on: KM12 colon
# [21] = tested on: LOX IMVI melanoma
# [22] = tested on: M14 melanoma
# [23] = tested on: MALME-3M melanoma
# [24] = tested on: MCF7 breast
# [25] = tested on: MDA-MB-231 breast
# [26] = tested on: MDA-MB-435
# [27] = tested on: MOLT-4 leukemia
# [28] = tested on: NCI-H226 lung
compound,measurement,setting,value
COc1ccc([As]=[As]c2ccc(OC)c(NCS(=O)(=O)O)c2)cc1NCS(=O)(=O)O (stereo unspecified),GI50,[1],1.63 µM
same,TGI,[1],3.51 µM
same,GI50,[2],1.65 µM
same,TGI,[2],3.26 µM
same,GI50,[3],3.04 µM
same,TGI,[3],9.96 µM
same,GI50,[4],1.62 µM
same,TGI,[4],3 µM
same,GI50,[5],1.11 µM
same,TGI,[5],2.45 µM
same,GI50,[6],0.415 µM
same,TGI,[6],3.14 µM
same,GI50,[7],1.52 µM
same,TGI,[7],3.46 µM
same,GI50,[8],3.56 µM
same,TGI,[8],13.8 µM
same,GI50,[9],1.36 µM
same,TGI,[9],7.26 µM
same,GI50,[10],2.67 µM
same,TGI,[10],8.8 µM
same,GI50,[11],1.7 µM
same,TGI,[11],3.2 µM
same,GI50,[12],1.47 µM
same,TGI,[12],3.31 µM
same,GI50,[13],1.51 µM
same,TGI,[13],11.7 µM
same,GI50,[14],2.4 µM
same,TGI,[14],5.9 µM
same,GI50,[15],1.45 µM
same,TGI,[15],3.24 µM
same,GI50,[16],3.21 µM
same,TGI,[16],> 100 µM
same,GI50,[17],2.25 µM
same,TGI,[17],5.37 µM
same,GI50,[18],1.19 µM
same,TGI,[18],3.4 µM
same,GI50,[19],0.615 µM
same,TGI,[19],11.1 µM
same,GI50,[20],2.98 µM
same,TGI,[20],10.5 µM
same,GI50,[21],1.34 µM
same,TGI,[21],4.49 µM
same,GI50,[22],2.15 µM
same,TGI,[22],5.69 µM
same,GI50,[23],1.41 µM
same,TGI,[23],3.34 µM
same,GI50,[24],1.09 µM
same,TGI,[24],3.44 µM
same,GI50,[25],1.56 µM
same,TGI,[25],3.4 µM
same,GI50,[26],2.03 µM
same,TGI,[26],5.26 µM
same,GI50,[27],1.33 µM
same,TGI,[27],6.18 µM
same,GI50,[28],4.07 µM
same,TGI,[28],17.3 µM
